{
  "source": "patent US12465648B2",
  "about": "“Heterobifunctional compounds as degraders of HPK1” (ICAHN SCHOOL OF MEDICINE AT MOUNT SINAI, priority 2019, dated 2025)",
  "key": {"[1]": {"system": "primary murine T cells", "test": "Proliferation of primary murine T cells", "format": "cell-based, mouse", "procedure": "(§1) EXAMPLE 348. Several compounds according to the present invention employing the indolin-2-one HPK1 binding base, (which henceforth shall be referred to as the HC58 series, the HC65 series and the HC75 series) were assessed on their abilities to degrade HPK1 and produce an elevated IL-2 response profile upon stimulation by anti-CD3- and anti-CD28-mAb-mediated (CD3XCD28) stimulation (FIGS. 1-4). The elevated IL-2 response profile induced by TCR engagement after exposure to HC58 series of HPK1 degraders is shown in FIG. 1. […] A select sub-set of the lead HPK1 degraders from the HC58 series were further characterized to determine whether they could degrade primary mouse T cells."}, "[2]": {"system": "primary GFP+ Tregs", "test": "IL-2 production by primary GFP+ Tregs in response to TCR engagement", "format": "cell-based", "details": "stimulation by TCR engagement (FIG. 7)"}, "[3]": {"target": "T1, HPK1 (Mus musculus, UniProt P70218)", "T1 construct": "HPK1 degraders could effectively degrade endogenous HPK1 in murine T cells; endogenous in cells; host or cells: primary mouse T cells", "T1 sequence (P70218 1-827)": "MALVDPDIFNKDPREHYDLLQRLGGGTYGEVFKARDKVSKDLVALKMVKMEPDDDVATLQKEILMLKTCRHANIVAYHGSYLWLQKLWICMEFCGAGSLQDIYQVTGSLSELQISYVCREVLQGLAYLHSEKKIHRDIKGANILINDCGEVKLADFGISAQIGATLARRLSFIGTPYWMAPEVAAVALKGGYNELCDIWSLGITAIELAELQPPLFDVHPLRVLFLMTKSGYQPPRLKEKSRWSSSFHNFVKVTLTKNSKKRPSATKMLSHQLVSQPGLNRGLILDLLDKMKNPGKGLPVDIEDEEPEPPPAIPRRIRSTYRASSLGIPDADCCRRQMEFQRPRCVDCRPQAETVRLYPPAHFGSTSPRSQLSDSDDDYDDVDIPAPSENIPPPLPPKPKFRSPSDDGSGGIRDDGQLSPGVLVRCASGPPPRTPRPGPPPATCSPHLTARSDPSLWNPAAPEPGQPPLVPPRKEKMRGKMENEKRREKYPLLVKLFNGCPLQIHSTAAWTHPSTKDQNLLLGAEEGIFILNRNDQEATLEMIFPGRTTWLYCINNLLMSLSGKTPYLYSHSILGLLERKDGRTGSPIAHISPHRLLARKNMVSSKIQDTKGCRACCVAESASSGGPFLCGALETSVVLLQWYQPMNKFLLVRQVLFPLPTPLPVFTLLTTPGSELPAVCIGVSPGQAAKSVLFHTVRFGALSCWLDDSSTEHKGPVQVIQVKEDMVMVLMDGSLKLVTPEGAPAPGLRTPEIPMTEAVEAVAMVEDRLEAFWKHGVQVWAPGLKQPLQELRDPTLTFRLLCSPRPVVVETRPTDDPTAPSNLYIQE", "test": "HPK1 degradation in primary mouse T cells", "format": "cell-based", "details": "300 nM", "procedure": "as §1\nEXAMPLE 353. HPK1 is expressed in all hematopoietic cells examined to date, including T cells, B cells, dendritic cells and neutrophils. Because the breath of therapeutic approaches might involve the use of Chimeric Antigen Receptor (CAR) T cells, dendritic cells, TCR transgenic T cells and Tumor Infiltrating Lymphocytes (TILs), selected HPK1 degraders were evaluated to determine whether they could degrade HPK1 effectively in some of these cell types. […] Potent degradation of HPK1 by HPK1 degraders was also observed in the human DC1 dendritic cells."}, "[4]": {"system": "CD4+eGFP+ Tregs", "test": "IL-2 production by regulatory T cells (Tregs) on CD3XCD28 stimulation (IL-2 ELISA)", "format": "cell-based, mouse", "details": "compared with HPK1-/- Tregs", "excerpt": "EXAMPLE 350. It was observed that HPK1^−/− regulatory T cells (Treg), unlike their wild type counterparts, could readily produce IL-2 in response to CD3XCD28 stimulation. Taking advantage of the FoxP3-driven eGFP reporter mice that express eGFP only in the FoxP3^+ regulatory T cells (Tregs), bonafide Tregs were purified from spleens and lymph nodes by FACS-assisted sorting of CD4^+eGFP^+ Tregs and used as the source of ex vivo functional studies. The ability of the wild type Treg, the HPK1^−/− Tregs and the HC58-78-treated wild type Tregs to produce IL-2 in response to CD3XCD28 stimulation was compared. […] Wild type regulatory T cells could not produce the IL-2 in response to the same stimulation due to the transcriptional repression of the IL-2 locus by the FoxP3 transcription factor (FIG. 7, the white histogram bar)."}, "[5]": {"target": "T2, HPK1 (Homo sapiens, UniProt Q92918)", "T2 construct": "endogenous in cells; host or cells: Jurkat T cells", "T2 sequence (Q92918 whole entry)": "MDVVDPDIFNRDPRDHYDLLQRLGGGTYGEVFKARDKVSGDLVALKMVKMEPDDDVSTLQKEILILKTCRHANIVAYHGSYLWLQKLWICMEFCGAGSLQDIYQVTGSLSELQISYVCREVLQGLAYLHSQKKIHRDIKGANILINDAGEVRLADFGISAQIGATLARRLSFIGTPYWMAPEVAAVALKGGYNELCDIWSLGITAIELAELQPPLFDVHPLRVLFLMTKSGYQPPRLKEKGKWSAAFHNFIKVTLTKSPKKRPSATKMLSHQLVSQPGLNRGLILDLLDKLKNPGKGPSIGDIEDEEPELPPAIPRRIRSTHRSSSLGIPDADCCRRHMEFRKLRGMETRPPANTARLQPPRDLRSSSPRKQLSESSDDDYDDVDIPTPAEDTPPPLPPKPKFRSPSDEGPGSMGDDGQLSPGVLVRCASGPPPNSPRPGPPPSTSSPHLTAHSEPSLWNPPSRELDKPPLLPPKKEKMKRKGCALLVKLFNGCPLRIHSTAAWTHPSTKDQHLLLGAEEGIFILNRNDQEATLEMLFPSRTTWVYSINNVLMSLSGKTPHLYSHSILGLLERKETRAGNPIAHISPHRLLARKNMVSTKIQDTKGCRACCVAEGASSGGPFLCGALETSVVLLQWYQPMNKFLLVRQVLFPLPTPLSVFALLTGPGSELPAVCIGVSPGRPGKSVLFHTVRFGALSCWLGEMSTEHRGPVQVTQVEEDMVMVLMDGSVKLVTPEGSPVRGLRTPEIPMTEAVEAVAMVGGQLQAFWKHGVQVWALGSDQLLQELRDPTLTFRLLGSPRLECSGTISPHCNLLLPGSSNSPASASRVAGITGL", "test": "Western blot analysis of endogenous HPK1 level in Jurkat T cells", "format": "cell-based"}, "[6]": {"system": "human PBMCs", "test": "Intracellular IFNγ and TNFα staining of human PBMC (FACS)", "format": "cell-based", "details": "in combination with blinatumomab", "excerpt": "EXAMPLE 355. One of the mechanisms employed by PBMC to kill their target cells is by releasing IFNγ and TNFα production. These inflammatory cytokines are known have potent cytolytic effects on cancer cells. […] Mediated PBMC killing of the Raji cells is most evident at PBMC:Raji ratio of 5:1 (FIG. 13).\nTo determine the number of CD19^+ Raji cells killed by human PBMC that were activated by the Blinatumomab-mediated activation, we used CountBright cell counting beads to estimate the number of cells remained after 72 hours of co-culturing of PBMC and Raji. As for the intracellular staining of the TNFα and the IFNγ, the standard para-formaldehyde-based “fix and perm” procedure was used in order to quantitate the amount of intracellular cytokine trapped inside the cells by brefeldin A. FACS analysis of stained cells is performed by BD's LSR II FACS."}, "[7]": {"system": "primary murine T cells", "test": "IL-2 production by primary murine T cells", "format": "cell-based, mouse", "procedure": "as §1"}},
  "data": [
    {"smiles": "Cc1[nH]c(/C=C2\\C(=O)Nc3ccc(F)cc32)c(C)c1C(=O)NCCCN1CCN(CC(=O)NCCCCCCCCNc2cccc3c2C(=O)N(C2CCC(=O)NC2=O)C3=O)CC1", "note": "(centres unmarked) [HC58-78, (Z)—N-(3-(4-(2-((8-((2-(2,6-dioxopiperidin-3-yl)-1,3-dioxoisoindolin-4-yl)amino)octyl)amino)-2-oxoethyl)piperazin-1-yl)propyl)-5-((5-fluoro-2-oxoindolin-3-ylidene)methyl)-2,4-dimethyl-1H-pyrrole-3-carboxamide]", "values": [
      {"measurement": "proliferation compared with the DMSO-treated counterpart", "setting": "[1]", "value": "proliferate much more quickly than the DMSO-treated counterpart"},
      {"measurement": "IL-2 production", "setting": "[2]", "value": "elevated IL-2 production"},
      {"measurement": "degradation of HPK1 protein in primary T cells compared with Jurkat T cells", "setting": "[3]", "value": "could degrade more HPK1 protein in primary T cells than in Jurkat T cells"},
      {"measurement": "IL-2 production by treated wild type Tregs", "setting": "[4]", "value": "produced IL-2 at level comparable to that produced by HPK1^−/− Tregs"},
      {"measurement": "endogenous level of HPK1", "setting": "[5]; Jurkat T cells, multiple day post exposure (FIG. 3)", "value": "could reduce the endogenous level of HPK1"},
      {"measurement": "reducing HPK1 protein levels", "setting": "[5]; characterization of exemplary degraders (FIGS. 1-14)", "value": "especially effective in reducing HPK1 protein levels"},
      {"measurement": "percentage of human PBMCs that express high level of IFNγ and TNFα", "setting": "[6]", "value": "significantly increased"},
      {"measurement": "IL-2 production compared with the DMSO-treated counterpart", "setting": "[7]", "value": "produced more IL-2 than the DMSO-treated counterpart"}
    ]}
  ]
}
